Experimental data as given in article PMC6145916, “Interaction of mitochondrial fission factor with dynamin related protein 1 governs physiological mitochondrial function in vivo” (Scientific Reports, 2018).
Where no end group is shown, it is not given here.

Columns and labels:
Mfn2 = experiment: Binding of recombinant Mfn2 to surface-conjugated P259 (AGILE-R100 graphene sensor); parameters: species or system human; conditions: P259 surface-conjugated (50 nM), 100 nM protein, RIPA buffer pH 8.0; n = 3, with 3 replicates
Text: Figure 1 Rational peptide design identifies a novel inhibitor of the Mff-Drp1 protein-protein interaction. (a) A scheme of the rationale behind the inhibitor design. […] Surface and ribbon diagrams of Drp1 structure (PDB, 4BEJ) with the GTPase, bundle signaling element (BSE), and stalk domains highlighted. (d) A heatmap representing sequence conservation of human proteins that contain a region similar to P259. Sequence conservation corresponds to the number of residues similar/identical to P259 from each sequence. […] The obtained graph is of the mean standardized response and ± s.e. as a function of time for n = 3 individual experiments, with 3 technical replicates each. […] Represented Western blot is cropped from a full blot shown in the Expanded Western Blots section of the Supplementary Information. (h) Relative GTPase activity of recombinant Drp1 in the presence of 1 µM of peptide (n = 3–5). Data are mean ± s.e. from 3–5 independent experiments per condition.
Drp1 and Mff. Utilizing BioPython, a pairwise alignment was performed between each ortholog […]
brief, an automated microwave peptide synthesizer (Liberty, CEM Corporation) was used to perform solid phase peptide synthesis by a series of coupling of fluorenylmethoxycarbonyl (Fmoc)-protected amino acids and hydroxybenz otriazol (HOBt) […] reaction steps. […]

wild-type MEFs = experiment: Mitochondrial ROS (MitoSox), WT MEFs; assay type: cell-based, mouse; conditions: 4 µM P259 daily for three days, vs no peptide; 3 independent experiments, three technical replicates; *** p <0.001
Text: Data are of 3 independent experiments with the whiskers calculated by the Turkey method. e. […]
production in an Mff -dependent manner. Mitochondrial reactive oxygen species production […]
treatment in each cell line. […]
determined by an unpaired, two -tailed t test). g. […]
control (no peptide treatment). Data are mean ± s.e. from 3 independent experiments.
Mitochondrial reactive oxygen species determination […]
and 1% penicillin-streptomycin solution (Corning, NY, USA). […]
and without phenol red. […] After incubation
HEPES, and without phenol red. […]
epifluorescence microscope with a 10X objective (Keyence). The Cy5 filter (Keyence) was used to autofocus on the mitochondria plane. […]
calculated as the average MitoSox signal per cell. […]

With “YGRKKRRQRRRGSGIIQLPEIVVV-NH2 (C-terminus assumed) [P259]” the “binding to Mfn2” value (Mfn2) was “only negligible binding” and the “mitochondrial ROS production, WT MEFs” value (wild-type MEFs) was “increases mitochondrial ROS”.
